pIC50: −log10 of the molar value.
Tested on: 966289-007-R4-J1-PDC complex spheroid viability
Test: Anticancer human tumor 966289-007-R4-J1-PDC patient-derived pancreatic adenocarcinoma cell line growth inhibition [GQUAD]
Conditions: for pIC50: curve of first compound; for viability, T/C: stronger effect = lower value
Procedure, shortened: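 Multi-cell-type spheroids of tumor cells with HUVEC and mesenchymal stem cells, treated with drug combinations. Concentrations descend in half-log steps from near clinical Cmax, or from 10 microM where Cmax is unknown; viability read-out.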

[1] = second compound 0.0316 µM, first compound 0.0316 µM
[2] = second compound 0.0316 µM, first compound 0.316 µM
[3] = second compound 0.1 µM, first compound 0.0316 µM
[4] = second compound 0.1 µM, first compound 0.316 µM
[5] = second compound 0.316 µM, first compound 0.0316 µM
[6] = second compound 0.316 µM, first compound 0.316 µM
[7] = second compound 1 µM, first compound 0.0316 µM
[8] = second compound 1 µM, first compound 0.316 µM
[9] = second compound 3.16 µM, first compound 0.0316 µM
[10] = second compound 3.16 µM, first compound 0.316 µM
[11] = second compound 10 µM, first compound 0.0316 µM
[12] = second compound 10 µM, first compound 0.316 µM
[13] = second compound 0.0316 µM, first compound 0.1 µM
[14] = second compound 0.0316 µM, first compound 1 µM
[15] = second compound 0.0316 µM, first compound 3.16 µM
[16] = second compound 0.0316 µM, first compound 10 µM
[17] = second compound 0.1 µM, first compound 0.1 µM
[18] = second compound 0.1 µM, first compound 1 µM
[19] = second compound 0.1 µM, first compound 3.16 µM
[20] = second compound 0.1 µM, first compound 10 µM
[21] = second compound 0.316 µM, first compound 0.1 µM
[22] = second compound 0.316 µM, first compound 1 µM
[23] = second compound 0.316 µM, first compound 3.16 µM
[24] = second compound 0.316 µM, first compound 10 µM
[25] = second compound 1 µM, first compound 0.1 µM
[26] = second compound 1 µM, first compound 1 µM
[27] = second compound 1 µM, first compound 3.16 µM
[28] = second compound 1 µM, first compound 10 µM
[29] = second compound 3.16 µM, first compound 0.1 µM
[30] = second compound 3.16 µM, first compound 1 µM
[31] = second compound 3.16 µM, first compound 3.16 µM
[32] = second compound 3.16 µM, first compound 10 µM
[33] = second compound 10 µM, first compound 0.1 µM
[34] = second compound 10 µM, first compound 1 µM
[35] = second compound 10 µM, first compound 3.16 µM
[36] = second compound 10 µM, first compound 10 µM
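Further: spheroids exposed to the agents for seven days before readout.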
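Wherever viability, T/C is given: percent viability relative to DMSO vehicle control wells taken as 100%.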

SMILES: CCc1c2c(nc3ccc(O)cc13)-c1cc3c(c(=O)n1C2)COC(=O)[C@]3(O)CC + Cc1[nH]c2ccc(F)cc2c1-c1nc2c3cccnc3c3ncccc3c2[nH]1
- pIC50 (second compound 0.0316 µM): > 9.00
- pIC50 (second compound 0.1 µM): > 9.00
- pIC50 (second compound 0.316 µM): > 9.00
- pIC50 (second compound 1 µM): > 9.00
- pIC50 (second compound 3.16 µM): > 9.00
- pIC50 (second compound 10 µM): > 9.00
- viability, T/C (second compound 0.0316 µM, first compound 0.000999 µM): 20.7%
- viability, T/C (second compound 0.0316 µM, first compound 0.00316 µM): 0.77%
- viability, T/C (second compound 0.0316 µM, first compound 0.00999 µM): 0.82%
- viability, T/C [1]: 0.49%
- viability, T/C (second compound 0.0316 µM, first compound 0.0999 µM): 0.89%
- viability, T/C [2]: 0.5%
- viability, T/C (second compound 0.1 µM, first compound 0.000999 µM): 17.3%
- viability, T/C (second compound 0.1 µM, first compound 0.00316 µM): 0.75%
- viability, T/C (second compound 0.1 µM, first compound 0.00999 µM): 0.91%
- viability, T/C [3]: 0.51%
- viability, T/C (second compound 0.1 µM, first compound 0.0999 µM): 0.52%
- viability, T/C [4]: 0.36%
- viability, T/C (second compound 0.316 µM, first compound 0.000999 µM): 15.4%
- viability, T/C (second compound 0.316 µM, first compound 0.00316 µM): 0.9%
- viability, T/C (second compound 0.316 µM, first compound 0.00999 µM): 0.74%
- viability, T/C [5]: 0.45%
- viability, T/C (second compound 0.316 µM, first compound 0.0999 µM): 0.43%
- viability, T/C [6]: 0.36%
- viability, T/C (second compound 1 µM, first compound 0.000999 µM): 14.3%
- viability, T/C (second compound 1 µM, first compound 0.00316 µM): 1.12%
- viability, T/C (second compound 1 µM, first compound 0.00999 µM): 0.71%
- viability, T/C [7]: 0.56%
- viability, T/C (second compound 1 µM, first compound 0.0999 µM): 0.34%
- viability, T/C [8]: 0.36%
- viability, T/C (second compound 3.16 µM, first compound 0.000999 µM): 9.81%
- viability, T/C (second compound 3.16 µM, first compound 0.00316 µM): 1.09%
- viability, T/C (second compound 3.16 µM, first compound 0.00999 µM): 0.59%
- viability, T/C [9]: 0.67%
- viability, T/C (second compound 3.16 µM, first compound 0.0999 µM): 0.58%
- viability, T/C [10]: 0.4%
- viability, T/C (second compound 10 µM, first compound 0.000999 µM): 5.35%
- viability, T/C (second compound 10 µM, first compound 0.00316 µM): 1.12%
- viability, T/C (second compound 10 µM, first compound 0.00999 µM): 0.71%
- viability, T/C [11]: 0.43%
- viability, T/C (second compound 10 µM, first compound 0.0999 µM): 0.31%
- viability, T/C [12]: 0.38%

SMILES: COc1cc(C2c3cc4c(cc3C(OC3OC5COC(C)OC5C(O)C3O)C3COC(=O)C23)OCO4)cc(OC)c1O (stereo not drawn) + Cc1[nH]c2ccc(F)cc2c1-c1nc2c3cccnc3c3ncccc3c2[nH]1
- pIC50 (second compound 0.0316 µM): 6.49
- pIC50 (second compound 0.1 µM): 6.56
- pIC50 (second compound 0.316 µM): 6.51
- pIC50 (second compound 1 µM): 6.52
- pIC50 (second compound 3.16 µM): 6.60
- pIC50 (second compound 10 µM): 6.66
- viability, T/C [1]: 107%
- viability, T/C [13]: 104%
- viability, T/C [2]: 50.5%
- viability, T/C [14]: 4.72%
- viability, T/C [15]: 2.07%
- viability, T/C [16]: 0.7%
- viability, T/C [3]: 107%
- viability, T/C [17]: 105%
- viability, T/C [4]: 41.7%
- viability, T/C [18]: 7.49%
- viability, T/C [19]: 1.48%
- viability, T/C [20]: 0.65%
- viability, T/C [5]: 102%
- viability, T/C [21]: 112%
- viability, T/C [6]: 49.2%
- viability, T/C [22]: 7.18%
- viability, T/C [23]: 1.57%
- viability, T/C [24]: 0.55%
- viability, T/C [7]: 99.4%
- viability, T/C [25]: 110%
- viability, T/C [8]: 48%
- viability, T/C [26]: 7.65%
- viability, T/C [27]: 1.61%
- viability, T/C [28]: 0.65%
- viability, T/C [9]: 108%
- viability, T/C [29]: 99.6%
- viability, T/C [10]: 37.6%
- viability, T/C [30]: 6.91%
- viability, T/C [31]: 2.31%
- viability, T/C [32]: 0.77%
- viability, T/C [11]: 101%
- viability, T/C [33]: 97.2%
- viability, T/C [12]: 28.1%
- viability, T/C [34]: 3.87%
- viability, T/C [35]: 1.57%
- viability, T/C [36]: 0.58%

SMILES: Nc1ccn(C2OC(CO)C(O)C2(F)F)c(=O)n1 (stereo not drawn) + Cc1[nH]c2ccc(F)cc2c1-c1nc2c3cccnc3c3ncccc3c2[nH]1
- pIC50 (second compound 0.0316 µM): > 7.50
- pIC50 (second compound 0.1 µM): > 7.50
- pIC50 (second compound 0.316 µM): > 7.50
- pIC50 (second compound 1 µM): > 7.50
- pIC50 (second compound 3.16 µM): > 7.50
- pIC50 (second compound 10 µM): > 7.50
- viability, T/C [1]: 7.33%
- viability, T/C [13]: 1.13%
- viability, T/C [2]: 0.84%
- viability, T/C [14]: 0.84%
- viability, T/C [15]: 1.15%
- viability, T/C [16]: 0.76%
- viability, T/C [3]: 7.75%
- viability, T/C [17]: 1%
- viability, T/C [4]: 1.28%
- viability, T/C [18]: 1.1%
- viability, T/C [19]: 0.83%
- viability, T/C [20]: 0.76%
- viability, T/C [5]: 5.74%
- viability, T/C [21]: 1.09%
- viability, T/C [6]: 1.33%
- viability, T/C [22]: 0.83%
- viability, T/C [23]: 0.67%
- viability, T/C [24]: 0.86%
- viability, T/C [7]: 7.53%
- viability, T/C [25]: 0.98%
- viability, T/C [8]: 1.01%
- viability, T/C [26]: 0.85%
- viability, T/C [27]: 0.92%
- viability, T/C [28]: 0.83%
- viability, T/C [9]: 4.68%
- viability, T/C [29]: 1.2%
- viability, T/C [10]: 1.1%
- viability, T/C [30]: 0.82%
- viability, T/C [31]: 1.7%
- viability, T/C [32]: 0.93%
- viability, T/C [11]: 2.75%
- viability, T/C [33]: 1.07%
- viability, T/C [12]: 0.98%
- viability, T/C [34]: 0.76%
- viability, T/C [35]: 1.44%
- viability, T/C [36]: 0.94%

SMILES: O=c1[nH]cc(F)c(=O)[nH]1 + Cc1[nH]c2ccc(F)cc2c1-c1nc2c3cccnc3c3ncccc3c2[nH]1
- pIC50 (second compound 0.0316 µM): 6.80
- pIC50 (second compound 0.1 µM): 6.73
- pIC50 (second compound 0.316 µM): 6.74
- pIC50 (second compound 1 µM): 6.79
- pIC50 (second compound 3.16 µM): 6.82
- pIC50 (second compound 10 µM): 7.03
- viability, T/C [1]: 111%
- viability, T/C [13]: 74.5%
- viability, T/C [2]: 13.6%
- viability, T/C [14]: 5.76%
- viability, T/C [15]: 6.03%
- viability, T/C [16]: 6.51%
- viability, T/C [3]: 112%
- viability, T/C [17]: 92.4%
- viability, T/C [4]: 13.9%
- viability, T/C [18]: 6.57%
- viability, T/C [19]: 5.93%
- viability, T/C [20]: 6.8%
- viability, T/C [5]: 95.9%
- viability, T/C [21]: 90.5%
- viability, T/C [6]: 12.1%
- viability, T/C [22]: 7.51%
- viability, T/C [23]: 5.56%
- viability, T/C [24]: 6.35%
- viability, T/C [7]: 96.3%
- viability, T/C [25]: 76.5%
- viability, T/C [8]: 14.8%
- viability, T/C [26]: 7.21%
- viability, T/C [27]: 6.11%
- viability, T/C [28]: 6.82%
- viability, T/C [9]: 110%
- viability, T/C [29]: 68.8%
- viability, T/C [10]: 15.2%
- viability, T/C [30]: 9.36%
- viability, T/C [31]: 7.92%
- viability, T/C [32]: 9.72%
- viability, T/C [11]: 114%
- viability, T/C [33]: 46%
- viability, T/C [12]: 14.6%
- viability, T/C [34]: 9.18%
- viability, T/C [35]: 6.61%
- viability, T/C [36]: 7.61%

Source: PubChem BioAssay AID2060488 (Molecular Pharmacology Branch, DTP, NCI, 2025)
